Results from patent KR20230138688A, “Halenaquinol sulfate를 유효성분으로 포함하는 베타아밀로이드 응집으로 유발되는 질환의 예방 또는 치료용 약학적 조성물” (priority 2022, dated 2023).

Legend:
[1] = biological target: T1, beta-amyloid Aβ42 (베타아밀로이드(Aβ)42) (Homo sapiens, UniProt P05067); assay: Inhibition of beta-amyloid (Aβ42) aggregation, Thioflavin T fluorescence; format: biochemical; settings: Aβ42 10 μM; 37 °C, 24 h; ThT 45 μM; 485 nm / 528 nm
T1 construct: Amyloid β 1-42 (Aβ42) 단백질은 DMSO에 1 mM으로 녹여

[2] = biological target: T2, beta-amyloid Aβ42 aggregates (베타아밀로이드 응집체) (Homo sapiens, UniProt P05067); assay: Disaggregation of preformed beta-amyloid (Aβ42) aggregates, Thioflavin T fluorescence; format: biochemical; settings: Aβ42 pre-incubated 24 h, then 24 h with compound at 37 °C; Aβ42 10 μM; ThT 45 μM
T2 construct: Amyloid β 1-42 (Aβ42) 단백질은 DMSO에 1 mM으로 녹여

[3] = biological target: Acetylcholinesterase (AChE) (Electrophorus electricus, UniProt O42275); assay: Acetylcholinesterase (AChE) inhibition, Ellman method; format: biochemical; settings: acetylthiocholine substrate, DTNB, 405 nm, pH 8.2
[4] = test system: inhibition of synaptic plasticity (LTP) by beta-amyloid (베타아밀로이드에 의한 시냅스 가소성(LTP) 억제); assay: Improvement of beta-amyloid-induced inhibition of synaptic plasticity (LTP), electrophysiology in hippocampal slices; settings: ICR mouse hippocampal slices; halenaquinol sulfate 10 μM 30 min, then with oligomeric beta-amyloid 1 μM for 2 h; HFS

Chain of Acetylcholinesterase (AChE) (O42275 whole entry): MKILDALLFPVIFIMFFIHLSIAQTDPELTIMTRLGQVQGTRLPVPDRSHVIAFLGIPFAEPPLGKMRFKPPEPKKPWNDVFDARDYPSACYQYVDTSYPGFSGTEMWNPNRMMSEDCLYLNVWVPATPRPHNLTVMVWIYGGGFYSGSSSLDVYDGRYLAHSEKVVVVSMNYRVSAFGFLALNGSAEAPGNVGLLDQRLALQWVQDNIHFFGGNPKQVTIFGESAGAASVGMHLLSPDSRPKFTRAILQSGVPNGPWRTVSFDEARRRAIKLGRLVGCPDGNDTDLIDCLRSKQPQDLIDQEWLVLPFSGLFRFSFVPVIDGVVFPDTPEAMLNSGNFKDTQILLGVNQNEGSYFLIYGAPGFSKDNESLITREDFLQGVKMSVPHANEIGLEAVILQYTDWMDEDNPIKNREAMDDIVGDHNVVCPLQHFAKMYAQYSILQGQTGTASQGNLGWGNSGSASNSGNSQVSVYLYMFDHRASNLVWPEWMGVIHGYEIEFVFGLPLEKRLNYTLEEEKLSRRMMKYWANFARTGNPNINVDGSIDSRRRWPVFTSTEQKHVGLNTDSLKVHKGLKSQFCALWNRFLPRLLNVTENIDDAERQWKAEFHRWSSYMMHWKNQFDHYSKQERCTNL
T2 sequence (P05067 672-713): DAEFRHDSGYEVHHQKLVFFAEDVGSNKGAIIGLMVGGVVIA
T1 sequence (P05067 672-713): as above

Halenaquinol sulfate
inhibitory activity against beta-amyloid aggregation [1]: 농도 의존적으로 베타아밀로이드(10 μM)의 응집에 대해 저해활성
disaggregation of already aggregated beta-amyloid [2]: 농도 의존적으로 이미 응집된 베타아밀로이드 응집체를 분해함
IC50 [3]: 17.9 µM
inhibition of acetylcholinesterase activity [3]: 농도의존적으로 acetylcholinesterase 활성을 저해
suppression of the effect of oligomeric beta-amyloid on LTP [4]: 베타아밀로이드의 효과를 유의적으로 억제
